According to patent US4515793A, “Phenylpiperazines which are useful in the treatment of schistosomiasis” (Edna McConnell Clark Foundation, priority 1983, dated 1985):
Values joined by “and” are separate entries in the source; they are usually repeats but may differ in a detail not shown here. Equal entries are not always repeated.

Experiments:
[1] = system: Salmonella Typhimurium TA100; assay: bacterial mutagenicity, strain TA100; type: cell-based; design: key: +: Positive Response; -: Negative Response; w+: Weak Positive Response
Procedure: (§1) The tests were carried out as follows:
(§2) Four phenylpiperazine derivatives were selected and specially purified samples were prepared for testing as bacterial mutagens. The tests were conducted with five strains (TA98, TA100, TA1535, TA1537, and TA1538) of Salmonella Typhimurium. The compounds were the base of cpd. A (Table 6a), cpd. 28 (Table 2), cpd. 49 (Table 3), and cpd. 8 (Table 1). Hycanthone was used as a positive control drug. In the initial test, cpd. A base was nonmutagenic, confirming previous work using strains TA98 and TA100 with cpd. A. Cpd. 28 and cpd. […] In this initial test, cpd. […] Therefore, it was concluded that cpd. 49 is nonmutagenic in the Ames/Salmonella assay.

S. mansoni [2] = assay: antischistosomal activity in mice (live worm burden, single oral dose); type: in vivo, S. mansoni (host: CD1 white female mice); settings: Schistosoma mansoni, single oral dose, read-out: % Reduction Live Worm Burden; for inhibition in vivo at 20 mg/kg / inhibition in vivo at 125 mg/kg / inhibition in vivo at 40 mg/kg: mice; for inhibition in vivo at 50 mg/kg: mice (footnote, 40 mg/kg); for inhibition in vivo at 156 mg/kg / inhibition in vivo at 160 mg/kg: mice (footnote, 125 mg/kg column)
Procedure: Tests were conducted to determine the antischistosomal activity in mice and monkeys. The results of the mice tests are reported in Tables 1 to 4 along with the chemical identifications of the compounds synthesized and tested.
The mice tests were conducted as follows:
A. Preinfection Procedures: Purina Laboratory chow (Ralston-Purina) and water were given ad libitum. All mice were housed in hanging stainless steel cages, without bedding, five per cage. They were kept in a ward with an ambient temperature of 75° F. and a relative humidity of 50-55%. Therapeutic treatment was given on Day 40 post-infection.
B. Experimental Procedures: CD1 white female mice were exposed by the tail immersion method for 30 minutes to 80 individually counted S. mansoni cercariae (WRAIR laboratory strain). The cercariae were obtained from pools of no less than 25 Biophalaria glabrata snails. Each experiment consisted of 118 mice divided into infected/water treated and infected/vehicle-treated controls, and infected/drug-treated groups (two dose levels) for six compounds. Groups of 12 mice each were treated with a compound synthesized and provided by the Warner-Lambert Company, Ann Arbor, Mich. at two dose levels. At the same time, five mice were sacrificed to establish worm burdens as infection controls. Three weeks after treatment, all remaining mice were sacrificed and perfused. Gross pathology (liver and intestines) was noted and graded (0 to +3). Worm burdens were determined and the sex of the worms recorded. Following perfusions the liver and intestines were removed and examined for the presence of […] or dead worms. […] Drugs were administered orally in Emulphor EL.
C. Drug Treatment: Treatment consisted of a single oral dose. Each drug was give initially at two dose levels, 40 mg/kg and 125 mg/kg, SID×1.
D. Criteria Used to Evaluate Therapeutic Effectiveness:
Evaluation of activity was determined by examination of the animals at 23 to 28 days after treatment. The schistosomes remaining alive after treatment were counted in the perfusates of the hepatic portal system and in press preparation of the livers. In the same preparations, the relative numbers of dead and/or encapsulated (i.e., worms may or may not be dead) parasites and the relative degree of pathology were ascertained. The efficacy of each treatment was that percentage of the control infection represented by the difference between numbers of parasites recovered from control (H2 O+vehicle) and treated animals. Thus, % efficacy is: [formula]

[3] = system: Salmonella Typhimurium TA1535; assay: bacterial mutagenicity, strain TA1535; type: cell-based; design: key: +: Positive Response; -: Negative Response; w+: Weak Positive Response; settings: without metabolic activation
Procedure: as §1, §2

[4] = system: Salmonella Typhimurium TA1538; assay: bacterial mutagenicity, strain TA1538; type: cell-based; design: key: +: Positive Response; -: Negative Response; w+: Weak Positive Response
Procedure: as §1, §2

Salmonella Typhimurium = assay: bacterial mutagenicity (Ames/Salmonella), five strains together; type: cell-based; settings: for bacterial mutagenicity: initial test
Procedure: as §1
Four phenylpiperazine derivatives were selected and specially purified samples were prepared for testing as bacterial mutagens. The tests were conducted with five strains (TA98, TA100, TA1535, TA1537, and TA1538) of Salmonella Typhimurium. The compounds were the base of cpd. A (Table 6a), cpd. 28 (Table 2), cpd. 49 (Table 3), and cpd. 8 (Table 1). Hycanthone was used as a positive control drug.

[5] = system: Salmonella Typhimurium TA98; assay: bacterial mutagenicity, strain TA98; type: cell-based; design: key to Mutagenicity TA98: +: Positive Response; -: Negative Response; w+: Weak Positive Response
Procedure: as §1, §2

[6] = system: Salmonella Typhimurium TA1537; assay: bacterial mutagenicity, strain TA1537; type: cell-based; design: key: +: Positive Response; -: Negative Response; w+: Weak Positive Response
Procedure: as §1, §2

S. mansoni [7] = assay: antischistosomal activity in Cebus apella monkeys treated orally; type: in vivo, S. mansoni (host: Cebus apella monkeys); settings: four equal doses over two days, oral; for Total Normal Worms at Necropsy: two values given, not assigned to the doses

Compound: O=C(CN1CCN(c2ccc(CO)c(Cl)c2)CC1)c1cc2ccccc2o1 [Cpd. 49, 2-[4-[3-Chloro-4-(hydroxymethyl)phenyl]-1-piperazinyl]-1-(2-benzofuranyl)-ethanone]
- Mutagenicity TA100 ([1]; with metabolic activation): -
- inhibition in vivo at 20 mg/kg (S. mansoni [2]): 33%
- inhibition in vivo at 125 mg/kg (S. mansoni [2]): 97%
- Mutagenicity TA1535 [3]: -
- Mutagenicity TA1538 ([4]; with metabolic activation): -
- Mutagenicity TA1538 ([4]; without metabolic activation): -
- bacterial mutagenicity, conclusion (Salmonella Typhimurium; Ames/Salmonella assay, overall conclusion): nonmutagenic
- bacterial mutagenicity (Salmonella Typhimurium; other four strains (not TA98)): nonmutagenic
- bacterial mutagenicity ([5]; initial test, TA98 with microsomal activation): weakly mutagenic
- bacterial mutagenicity ([5]; second test, TA98, microsomal activation, additional concentrations 10-60 micrograms/ml): did not confirm this mutagenicity
- Mutagenicity TA98 ([5]; with metabolic activation): +
- Mutagenicity TA98 ([5]; without metabolic activation): -
- Mutagenicity TA1537 ([6]; with metabolic activation): -
- Mutagenicity TA1537 ([6]; without metabolic activation): -

Compound: CCN(CC)CCNc1ccc(CO)c2sc3ccccc3c(=O)c12 [Hycanthone, reference compound]
- Mutagenicity TA100 ([1]; with metabolic activation): +
- Mutagenicity TA100 ([1]; without metabolic activation): +
- Mutagenicity TA1535 [3]: -
- Mutagenicity TA1538 ([4]; with metabolic activation): +
- Mutagenicity TA1538 ([4]; without metabolic activation): +
- Mutagenicity TA98 ([5]; with metabolic activation): +
- Mutagenicity TA98 ([5]; without metabolic activation): +
- Mutagenicity TA1537 ([6]; with metabolic activation): +
- Mutagenicity TA1537 ([6]; without metabolic activation): +

Compound: O=C(CCN1CCN(c2ccc(CO)c(Cl)c2)CC1)c1ccc(Cl)cc1 [Cpd. 28, 3-[4-[3-Chloro-4-(hydroxymethyl)phenyl]-1-piperazinyl]-1-(4-chlorophenyl)-1-propanone]
- Mutagenicity TA100 ([1]; with metabolic activation): +
- inhibition in vivo at 20 mg/kg (S. mansoni [2]): 66%
- inhibition in vivo at 40 mg/kg (S. mansoni [2]): 88%
- inhibition in vivo at 50 mg/kg (S. mansoni [2]): 98%
- inhibition in vivo at 156 mg/kg (S. mansoni [2]): 99%
- Mutagenicity TA1535 [3]: -
- Mutagenicity TA1538 ([4]; with metabolic activation): +
- Mutagenicity TA1538 ([4]; without metabolic activation): w+
- bacterial mutagenicity (Salmonella Typhimurium; five strains): mutagenic, but much less so than hycanthone
- Mutagenicity TA98 ([5]; with metabolic activation): -
- Mutagenicity TA98 ([5]; without metabolic activation): -
- Mutagenicity TA1537 ([6]; with metabolic activation): -
- Mutagenicity TA1537 ([6]; without metabolic activation): w+

Compound: O=C(CN1CCN(c2ccc(CO)c(Cl)c2)CC1)c1ccc(Cl)c(Cl)c1Cl [Cpd. 8, 2-[4-[3-Chloro-4-(hydroxymethyl)phenyl]-1-piperazinyl]-1-(2,3,4-trichlorophenyl)ethanone]
- Mutagenicity TA100 ([1]; with metabolic activation): +
- inhibition in vivo at 40 mg/kg (S. mansoni [2]): 84%
- inhibition in vivo at 50 mg/kg (S. mansoni [2]): 91%
- inhibition in vivo at 156 mg/kg (S. mansoni [2]): 96%
- Mutagenicity TA1535 [3]: -
- Mutagenicity TA1538 ([4]; with metabolic activation): -
- Mutagenicity TA1538 ([4]; without metabolic activation): -
- bacterial mutagenicity (Salmonella Typhimurium; five strains): mutagenic, but much less so than hycanthone
- Mutagenicity TA98 ([5]; with metabolic activation): -
- Mutagenicity TA98 ([5]; without metabolic activation): -
- Mutagenicity TA1537 ([6]; with metabolic activation): w+
- Mutagenicity TA1537 ([6]; without metabolic activation): -

Compound: O=C(CN1CCN(c2ccc(CO)c(Cl)c2)CC1)c1ccc(Cl)c(Cl)c1Cl [drawing 33]
- % Reduction Live Worm Burden at Necropsy (S. mansoni [7]; 200 mg/kg): 85% and 83%
- Fecal Egg Count (S. mansoni [7]; 200 mg/kg): 0
- % Reduction Live Worm Burden at Necropsy (S. mansoni [7]; 400 mg/kg): 99% and 98%
- Fecal Egg Count (S. mansoni [7]; 400 mg/kg): 0
- Total Normal Worms at Necropsy (S. mansoni [7]): 0

Compound: O=C(CCN1CCN(c2ccc(CO)c(Cl)c2)CC1)c1ccc(Cl)cc1 [drawing 32]
- % Reduction Live Worm Burden at Necropsy (S. mansoni [7]; 100 mg/kg): 93% and 87%
- Total Live Worms at Necropsy (S. mansoni [7]; 100 mg/kg): 15 and 27
- % Reduction Live Worm Burden at Necropsy (S. mansoni [7]; 200 mg/kg): 100% and 96%
- % Reduction Live Worm Burden at Necropsy (S. mansoni [7]; 400 mg/kg): 97% and 95%
- Total Live Worms at Necropsy (S. mansoni [7]; 400 mg/kg): 6 and 11
- Total Normal Worms at Necropsy (S. mansoni [7]): 0
- Fecal Egg Count (S. mansoni [7]; two values printed for six animals (400, 200, 100 mg/kg), not assigned): 0

Compound: O=C(CCN1CCN(c2ccc(CO)c(Cl)c2)CC1)c1ccc(-c2ccccc2)cc1 [compound 44]
- inhibition in vivo at 20 mg/kg (S. mansoni [2]): 69%
- inhibition in vivo at 40 mg/kg (S. mansoni [2]): 89%
- inhibition in vivo at 125 mg/kg (S. mansoni [2]): 97%

Compound: O=C(CN1CCN(c2ccc(CO)c(Cl)c2)CC1)c1ccc(Cl)cc1O [compound 18]
- inhibition in vivo at 40 mg/kg (S. mansoni [2]): 5%
- inhibition in vivo at 160 mg/kg (S. mansoni [2]): 26%

Compound: O=C(CN1CCN(c2ccc(CO)c(Cl)c2)CC1)c1cccc2ccccc12 [compound 24]
- inhibition in vivo at 40 mg/kg (S. mansoni [2]): 3%
- inhibition in vivo at 125 mg/kg (S. mansoni [2]): 64%

Compound: O=C(CN1CCN(c2ccc(CO)c(Cl)c2)CC1)c1ccc2sc3ccccc3c2c1 [compound 56]
- inhibition in vivo at 40 mg/kg (S. mansoni [2]): 51%
- inhibition in vivo at 125 mg/kg (S. mansoni [2]): 77%

Compound: O=C(CCN1CCN(c2ccc(CO)c(Cl)c2)CC1)c1ccc2ccccc2c1 [compound 36]
- inhibition in vivo at 20 mg/kg (S. mansoni [2]): 75%
- inhibition in vivo at 40 mg/kg (S. mansoni [2]): 82%
- inhibition in vivo at 125 mg/kg (S. mansoni [2]): 95%

Compound: O=C(CN1CCN(c2ccc(CO)c(Cl)c2)CC1)c1cccc(Cl)c1 [compound 27]
- inhibition in vivo at 40 mg/kg (S. mansoni [2]): 64%
- inhibition in vivo at 125 mg/kg (S. mansoni [2]): 83%

Compound: O=C(CCN1CCN(c2ccc(CO)c(Cl)c2)CC1)c1cc(Cl)ccc1Cl [compound 43]
- inhibition in vivo at 20 mg/kg (S. mansoni [2]): 84%
- inhibition in vivo at 40 mg/kg (S. mansoni [2]): 80%
- inhibition in vivo at 125 mg/kg (S. mansoni [2]): 98%

Compound: O=C(CCN1CCN(c2ccc(CO)c(Cl)c2)CC1)c1ccc(Br)cc1 [compound 42]
- inhibition in vivo at 20 mg/kg (S. mansoni [2]): 82%
- inhibition in vivo at 40 mg/kg (S. mansoni [2]): 84%
- inhibition in vivo at 125 mg/kg (S. mansoni [2]): 98%

Compound: O=C(CN1CCN(c2ccc(CO)c(Cl)c2)CC1)c1ccc(Cl)c([N+](=O)[O-])c1 [Cpd. 14]
- inhibition in vivo at 40 mg/kg (S. mansoni [2]): 56%
- inhibition in vivo at 160 mg/kg (S. mansoni [2]): 99%

Compound: O=C(CN1CCN(c2ccc(CO)c(Cl)c2)CC1)c1ccc(Br)s1 [compound 47]
- inhibition in vivo at 40 mg/kg (S. mansoni [2]): 35%
- inhibition in vivo at 125 mg/kg (S. mansoni [2]): 93%

Compound: CSc1ccc(C(=O)CCN2CCN(c3ccc(CO)c(Cl)c3)CC2)cc1 [Cpd. 31]
- inhibition in vivo at 40 mg/kg (S. mansoni [2]): 73%
- inhibition in vivo at 125 mg/kg (S. mansoni [2]): 93%
